SMILES strings stand for the structures.

For experiment [1], the target named is T1, hAT1R (Homo sapiens, UniProt P30556).
T1 sequence (P30556 1-359): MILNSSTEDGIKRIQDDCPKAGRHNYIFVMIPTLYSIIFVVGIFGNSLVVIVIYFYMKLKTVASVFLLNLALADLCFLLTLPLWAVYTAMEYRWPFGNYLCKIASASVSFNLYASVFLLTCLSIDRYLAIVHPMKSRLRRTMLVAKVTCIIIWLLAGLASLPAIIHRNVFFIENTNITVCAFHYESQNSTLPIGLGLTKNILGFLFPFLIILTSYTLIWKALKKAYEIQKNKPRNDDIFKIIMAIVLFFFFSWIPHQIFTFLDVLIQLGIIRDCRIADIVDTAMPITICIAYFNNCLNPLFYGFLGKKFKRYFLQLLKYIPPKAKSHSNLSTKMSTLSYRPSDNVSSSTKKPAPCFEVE
Kind of experiment: BRET Gq biosensor assay, agonist response, HEK293 cells. Conditions: section of the 42nd table directly before the BRET P63 section. The format is cell-based. The gist of the method:
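Agonist EC50 derived from a 4-parameter fit of BRET2 ratio (GFP 515 nm/Rluc 410 nm), scaled between unstimulated control and maximal AngII response. Readings taken 5 min after compound addition at room temperature, with 2 μM coelenterazine, in HEK293 cells expressing hAT1R, Gαq-Rluc, Gβ1 and GFP-Gγ1 (transfected two days earlier).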

In experiment [2] the target is T1, hAT1R. The experiment can be described thus: BRET β-arrestin2 biosensor assay, higher receptor expression (hAT1R 5 ng/well), HEK293 cells. The format is cell-based. Conditions: for EC50: High AT1R Expression.
Experiment [3] deals with T1, hAT1R. Kind of experiment: cell-based. Conditions: agonist mode; for EC50: read-out: BRET P63 EC50.
A further experiment concerns the target T2, AGTR1 (Homo sapiens, UniProt P30556).
T2 construct: host or cells: Pathunter CHO-K1 AGTR1 β-arrestin cell line (CHO-K1)
T2 sequence (P30556 1-359): T1 sequence (P30556 1-359)
The experiment can be described thus: DiscoveRx β-arrestin2 recruitment assay (enzyme complementation, Pathunter CHO-K1 AGTR1 β-arrestin cell line). It counts as cell-based. Conditions: DiscoveRx β-arrestin2 recruitment. The gist of the method: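 Chemiluminescent enzyme-complementation read-out of β-arrestin2 recruitment to AGTR1 in engineered CHO-K1 cells after 90 min compound exposure at 37° C. Values are 4-parameter logistic EC50s in agonist mode, IC50s in antagonist mode, with efficacy relative to the maximal All response.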

As to `CCCCC(=O)N(Cc1ccc(-c2cc(N3CCCC(C)C3)ccc2-c2nn[nH]n2)cc1)C1(C(=O)O)CCCCC1` (stereo not shown) [Example 297, 1-(N-((5′-(3-methylpiperidin-1-yl)-2′-(2H-tetrazol-5-yl)-[1,1′-biphenyl]-4-yl)methyl)pentanamido)cyclohexanecarboxylic acid], the EC50 on hAT1R [1] was 621 nM; on hAT1R [2], 327 nM; at hAT1R [3], more than 100000 nM; on AGTR1 it was 142 nM. In addition, on hAT1R [2], the “BRET β-Arrestin2 High AT1R Expression Ymax (%)” value came to 74.5%. In addition, the “DiscoveRx β-arrestin2 Ymax (%)” value at AGTR1 (maximal response) is given as 30.5%.
On to `CCCCC(=O)N(Cc1ccc(-c2cc(-c3cccc(OC)n3)ccc2-c2nn[nH]n2)cc1)C1(C(=O)O)CCCCC1` [Example 296], for which the 50% effective concentration (EC50) worked out at 619 nM at hAT1R [1], 68.8 nM on hAT1R [2], 307 nM at hAT1R [3] and 128 nM on AGTR1. The “BRET β-Arrestin2 High AT1R Expression Ymax (%)” value on hAT1R [2] came to 79.9%. Further, the “BRET P63 Ymax” value at hAT1R [3] stood at 6.9%. Further, the “DiscoveRx β-arrestin2 Ymax (%)” value at AGTR1 (maximal response) is 41.8%.
For `CCCCC(=O)N(Cc1ccc(-c2cc(N3CCC(C)CC3)ccc2-c2nn[nH]n2)cc1)[C@H](C(=O)O)C(C)C` [Example 447], the EC50 at hAT1R [1] is 1380 nM; at hAT1R [2], 336 nM; at hAT1R [3] it was more than 100000 nM; at AGTR1, 295 nM. Besides, the “BRET β-Arrestin2 High AT1R Expression Ymax (%)” value on hAT1R [2] is on record as 63.1%. Moreover, the “DiscoveRx β-arrestin2 Ymax (%)” value at AGTR1 was determined as 35.0%.
On to `CCCCC(=O)N(Cc1ccc(-c2cc(-c3ccccc3)ccc2-c2nn[nH]n2)cc1)C1(C(=O)O)CCCC1` [Example 271], for which the EC50 at hAT1R [1] came to 590 nM; on hAT1R [2], 561 nM; at AGTR1 it was 384 nM. Also, at hAT1R [2], the “BRET β-Arrestin2 High AT1R Expression Ymax (%)” value is listed as 80.3%. In addition, the “DiscoveRx β-arrestin2 Ymax (%)” value at AGTR1 (maximal response) worked out at 45.5%.
For `CCCCc1nc(Cl)c(C(=O)O)n1Cc1ccc(-c2cc(N3CC(C)(C)c4ccccc43)ccc2-c2noc(=O)[nH]2)cc1` [Example 405, 2-butyl-4-chloro-1-((5′-(3,3-dimethylindolin-1-yl)-2′-(5-oxo-4,5-dihydro-1,2,4-oxadiazol-3-yl)-[1,1′-biphenyl]-4-yl)methyl)-1H-imidazole-5-carboxylic acid], in that order: 492 nM, 42 nM, 57.5 nM, 95.8% and 32.8%.
Regarding `CCCCC(=O)N(Cc1ccc(-c2cc(-c3ccccc3)ccc2-c2nn[nH]n2)cc1)C1(C(=O)O)CCC(C)(C)CC1` [Example 275, 1-(N-((6′-(2H-Tetrazol-5-yl)-[1,1′:3′,1″-terphenyl]-4-yl)methyl)pentan-amido)-4,4-dimethylcyclohexanecarboxylic acid], the EC50 on hAT1R [1] was more than 100000 nM; on hAT1R [2] it was 21.5 nM; on AGTR1, 26.6 nM. Besides, at hAT1R [2], the “BRET β-Arrestin2 High AT1R Expression Ymax (%)” value came to 71.5%. The “DiscoveRx β-arrestin2 Ymax (%)” value at AGTR1 (maximal response) turned out to be 50.9%.
Taken in the same sequence, the figures for `CCCCc1ncc(C(=O)NCc2ccccn2)n1Cc1ccc(-c2cc(-c3ccccc3)ccc2-c2nn[nH]n2)cc1` [Example 371] were more than 1000 nM, 11 nM, 5.7 nM, 94.4% and 40.8%.
In the case of `CCCCc1ncc(C(=O)Nc2nc(C)cs2)n1Cc1ccc(-c2cc(-c3ccccc3)ccc2-c2nn[nH]n2)cc1` [Example 349], the EC50 is 174 nM at hAT1R [1], 117 nM at hAT1R [2] and 69.2 nM at AGTR1. The “BRET β-Arrestin2 High AT1R Expression Ymax (%)” value on hAT1R [2] is given as 67.6%. Moreover, the “DiscoveRx β-arrestin2 Ymax (%)” value on AGTR1 (maximal response) came out at 24.8%.
Taken in the same sequence, the figures for `CCCCc1ncc(C(=O)NC2CCCC2)n1Cc1ccc(-c2cc(-c3ccccc3)ccc2-c2nn[nH]n2)cc1` [Example 377] were 146 nM, 25.4 nM, 49.5 nM, 80.9% and 39.0%.
Taken in the same sequence, the figures for `CCOc1nc2cccc(C(=O)O)c2n1Cc1ccc(-c2cc(-c3ccc(C(=O)N(C)C)cc3)ccc2C(=O)O)cc1` [Example 320] were more than 100000 nM, 173 nM, 40.7 nM, 86.8% and 55.7%.
For `CCCCc1ncc(C(=O)NC2CCCCCC2)n1Cc1ccc(-c2cc(-c3ccccc3)ccc2-c2nn[nH]n2)cc1` [Example 362], in that order: 34.2 nM, 26.4 nM, 123 nM, 97.0% and 49.8%.
Consider `CCCCc1ncc(C(=O)Nc2ccncc2C)n1Cc1ccc(-c2cc(-c3ccccc3)ccc2-c2nn[nH]n2)cc1` [Example 375], for which the EC50 at hAT1R [1] is 273 nM; at hAT1R [2] it was 89.4 nM; on AGTR1, 89.7 nM. The “BRET β-Arrestin2 High AT1R Expression Ymax (%)” value on hAT1R [2] was 55.7%. In addition, at AGTR1 (maximal response), the “DiscoveRx β-arrestin2 Ymax (%)” value came out at 35.8%.
In the case of `CCCCC(=O)N(Cc1ccc(-c2cc(Oc3cccc(OC(F)(F)F)c3)ccc2-c2nn[nH]n2)cc1)[C@H](C(=O)O)C(C)C` [Example 437], the EC50 on hAT1R [1] was more than 100000 nM. On hAT1R [2], the “BRET β-Arrestin2 High AT1R Expression Ymax (%)” value is given as 16.4% and the EC50 was found to be 168 nM. Further, on AGTR1, the “DiscoveRx β-arrestin2 Ymax (%)” value is 26.4% and the concentration for a half-maximal effect (EC50) was 3920 nM.
Consider `CCCCc1ncc(C(=O)N2CCCCC2)n1Cc1ccc(-c2cc(-c3ccccc3)ccc2-c2nn[nH]n2)cc1` [Example 378], for which the values for the concentration for a half-maximal effect (EC50) on hAT1R [1], on hAT1R [2] and at AGTR1 were 688 nM, 238 nM and 107 nM, respectively. Further, the “BRET β-Arrestin2 High AT1R Expression Ymax (%)” value on hAT1R [2] is given as 26.3%. At AGTR1 (maximal response), the “DiscoveRx β-arrestin2 Ymax (%)” value is 15.7%.
`CCCCc1nc(Cl)c(C(=O)O)n1Cc1ccc(-c2cc(-c3cncc(OC)c3)ccc2-c2nn[nH]n2)cc1` [Example 385]: the results for the EC50 on hAT1R [1], at hAT1R [2] and on AGTR1 were 1110 nM, 57.1 nM and 31.4 nM, respectively. Also, on hAT1R [2], the “BRET β-Arrestin2 High AT1R Expression Ymax (%)” value is 87.0%. For the same molecule, the “DiscoveRx β-arrestin2 Ymax (%)” value on AGTR1 (maximal response) stood at 35.4%.
For `CCCCc1nc(Cl)c(C(=O)O)n1Cc1ccc(-c2cc(-c3cnn(C4CC4)c3)ccc2-c2nn[nH]n2)cc1` [Example 386], in that order: 59100 nM, 45.2 nM, 8.4 nM, 66.7% and 27.3%.
Take `CCCCC(=O)N(Cc1ccc(-c2cc(-c3ccccc3)ccc2-c2noc(=O)[nH]2)nc1)[C@H](C(=O)O)C(C)C` [Example 434, (S)-3-Methyl-2-(N-((6-(4-(5-oxo-4,5-dihydro-1,2,4-oxadiazol-3-yl)-[1,1′-biphenyl]-3-yl)pyridin-3-yl)methyl)pentanamido)butanoic acid 2,2,2-trifluoroacetate]: on hAT1R [1], the EC50 worked out at 1280 nM. Also, on hAT1R [2], the “BRET β-Arrestin2 High AT1R Expression Ymax (%)” value is 96.6% and the EC50 is 316 nM. At AGTR1, the “DiscoveRx β-arrestin2 Ymax (%)” value turned out to be 40.9% and a half-maximal response (EC50) required 72 nM.
With `CCCCc1ncc(C(=O)NCCOC)n1Cc1ccc(-c2cc(-c3ccccc3)ccc2-c2nn[nH]n2)cc1` [Example 374], the half-maximal effective concentration (EC50) at hAT1R [1] is 16.2 nM; on hAT1R [2], 13.4 nM; at AGTR1, 10.5 nM. The “BRET β-Arrestin2 High AT1R Expression Ymax (%)” value at hAT1R [2] turned out to be 94.4%. Further, on AGTR1 (maximal response), the “DiscoveRx β-arrestin2 Ymax (%)” value is reported as 44.3%.
Regarding `CCCCC(=O)N(Cc1ccc(-c2cc(-c3cccnc3OC)ccc2-c2nn[nH]n2)cc1)C1(C(=O)O)CCCCC1` [Example 290], the EC50 amounted to 503 nM at hAT1R [1], 67.3 nM on hAT1R [2] and 88.5 nM at AGTR1. Further, the “BRET β-Arrestin2 High AT1R Expression Ymax (%)” value at hAT1R [2] was 31.2%. Besides, the “DiscoveRx β-arrestin2 Ymax (%)” value on AGTR1 (maximal response) is reported as 30.7%.
Turning to `CCCCc1ncc(C(=O)O)n1Cc1ccc(-c2cc(-c3ccccc3)ccc2C(=O)O)cc1` [Example 415], the EC50 turned out to be 487 nM at hAT1R [1], 206 nM at hAT1R [2] and 111 nM at AGTR1. For the same molecule, the “BRET β-Arrestin2 High AT1R Expression Ymax (%)” value on hAT1R [2] came out at 26.8%. Further, on AGTR1 (maximal response), the “DiscoveRx β-arrestin2 Ymax (%)” value is on record as 29.3%.
As for `CCCCc1ncc(C(=O)NCC(C)C)n1Cc1ccc(-c2cc(-c3ccccc3)ccc2-c2nn[nH]n2)cc1` [Example 368], the EC50 was 96.1 nM on hAT1R [1], 32.5 nM on hAT1R [2] and 59.8 nM at AGTR1. The “BRET β-Arrestin2 High AT1R Expression Ymax (%)” value on hAT1R [2] is on record as 82.6%. The “DiscoveRx β-arrestin2 Ymax (%)” value on AGTR1 (maximal response) was 39.1%.

(Values after patent US12037324B2, “Biarylmethyl heterocycles” (Université de Montréal, priority 2016, dated 2024).)
